In patent US7855309B2, “Pesticide benzyloxy- and phenetyl-substituted phenyl-amidine derivatives” (Bayer CropScience AG, priority 2005, dated 2010):

Assay: logP by HPLC on reversed-phase column (EEC Directive 79/831 Annex V.A8)
Format: physicochemical
Details: for log P: HPLC, C18, 40° C., 0.1% aqueous formic acid and acetonitrile
Experimental: Temperature: 40° C.; Mobile phases: 0.1% aqueous formic acid and acetonitrile; linear gradient from 10% acetonitrile to 90% acetonitrile.
Calibration was carried out using unbranched alkan-2-ones (comprising 3 to 16 carbon atoms) with known logP values (determination of the logP values by the retention times using linear interpolation between two successive alkanones).

| SMILES | log P | chromatographic logP (reversed-phase HPLC column (C18), pH 2.3, read-out: log P (pH 2.3)) |
| --- | --- | --- |
| Cc1cc(OCc2ccc(C#N)cc2)c(C)cc1N=CN1CCCCC1 [Compound 98] | 1.94 |  |
| Cc1cc(C)cc(COc2cc(C)c(N=CN3CCCCC3)cc2C)c1 [Compound 99] | 2.42 |  |
| Cc1cc(OCc2ccccc2F)c(C)cc1N=CN1CCCCC1 [Compound 100] | 2.09 |  |
| Cc1cc(OCc2c(F)cccc2Cl)c(C)cc1N=CN1CCCCC1 [Compound 101] | 2.16 |  |
| COc1cc(Cl)c(COc2cc(C)c(N=CN3CCCCC3)cc2C)cc1OC [Compound 102] | 2.09 |  |
| CON=Cc1ccc(COc2cc(C)c(N=CN3CCCCC3)cc2C)cc1 [Compound 103] | 2.21 |  |
| Cc1cc(OCc2ccc(F)cc2)c(C)cc1N=CN1CCCCC1 [Compound 104] | 2.09 |  |
| Cc1cc(OCc2ccc(Cl)cc2)c(C)cc1N=CN1CCCCC1 [Compound 105] | 2.26 |  |
| Cc1cc(OCc2ccccc2Cl)c(C)cc1N=CN1CCCCC1 [Compound 106] | 2.18 |  |
| Cc1cc(OCc2ccc(Cl)c(Cl)c2)c(C)cc1N=CN1CCCCC1 [Compound 107] | 2.45 |  |
| Cc1ccc(COc2cc(C)c(N=CN3CCCCC3)cc2C)cc1C [Compound 108] | 2.36 |  |
| Cc1cc(OCc2ccc(C(F)(F)F)cc2)c(C)cc1N=CN1CCCCC1 [Compound 109] | 2.33 |  |
| Cc1cc(OCc2ccc(F)c(F)c2)c(C)cc1N=CN1CCCCC1 [Compound 110] | 2.13 |  |
| Cc1cc(OCc2ccccc2OC(F)(F)F)c(C)cc1N=CN1CCCCC1 [Compound 111] | 2.33 |  |
| Cc1cc(OCc2ccccc2SC(F)(F)F)c(C)cc1N=CN1CCCCC1 [Compound 112] | 2.48 |  |
| Cc1cc(OCc2cccc(OC(F)(F)F)c2)c(C)cc1N=CN1CCCCC1 [Compound 113] | 2.39 |  |
| Cc1cc(OCc2cccc(SC(F)(F)F)c2)c(C)cc1N=CN1CCCCC1 [Compound 114] | 2.48 |  |

| SMILES | log P | chromatographic logP (reversed-phase HPLC column (C18), pH 2.3, read-out: log P (pH 2.3)) |
| --- | --- | --- |
| Cc1cc(OCc2ccc(SC(F)(F)F)cc2)c(C)cc1N=CN1CCCCC1 [Compound 115] | 2.55 |  |
| Cc1cc(OCc2ccc(Cl)cc2C(F)(F)F)c(C)cc1N=CN1CCCCC1 [Compound 116] | 2.55 |  |
| Cc1ccc(COc2cc(C)c(N=CN3CCCCC3)cc2C)cc1Cl [Compound 117] | 2.39 |  |
| Cc1cc(OCc2cc(Cl)cc(C(F)(F)F)c2)c(C)cc1N=CN1CCCCC1 [Compound 118] | 2.61 |  |
| Cc1cc(OCc2cc(C(F)(F)F)ccc2Cl)c(C)cc1N=CN1CCCCC1 [Compound 119] | 2.58 |  |
| Cc1cc(OCc2cccc(C#N)c2)c(C)cc1N=CN1CCCCC1 [Compound 120] | 1.9 |  |
| COc1cc(COc2cc(C)c(N=CN3CCCCC3)cc2C)ccc1F [Compound 121] | 2.06 |  |
| Cc1cc(OCc2ccc(OC(F)(F)F)cc2)c(C)cc1N=CN1CCCCC1 [Compound 122] | 2.42 |  |
| Cc1cc(OCc2ccccc2C(F)(F)F)c(C)cc1N=CN1CCCCC1 [Compound 123] | 2.29 |  |
| Cc1ccc(COc2cc(C)c(N=CN3CCCCC3)cc2C)cc1 [Compound 124] | 2.23 |  |
| Cc1cc(OCc2ccc(OC(F)F)cc2)c(C)cc1N=CN1CCCCC1 [Compound 125] | 2.16 |  |
| Cc1cc(OCc2ccc(C(F)(F)F)cc2)c(C)cc1N=CN1CCCCC1 [Compound 126] | 2.58 |  |
| Cc1cc(OCc2ccccc2OC(F)F)c(C)cc1N=CN1CCCCC1 [Compound 127] | 2.13 |  |
| Cc1cc(OCc2ccc3nsnc3c2)c(C)cc1N=CN1CCCCC1 [Compound 128] | 1.99 |  |
| Cc1cc(OCc2ccc(Cl)c(C(F)(F)F)c2)c(C)cc1N=CN1CCCCC1 [Compound 129] | 2.51 |  |
| CCN(C)/C=N/c1cc(C)c(I)cc1C [Intermediate (V-1), N′-(4-iodo-2,5-dimethylphenyl)-N-ethyl-N-methylimidoformamide] |  | 1.21 |
